From EP0093484A2, “Antibacterial monic acid derivatives” (BEECHAM GROUP PLC, priority 1982, dated 1983)
Converted amounts (≈) assume the structure as drawn. Where two headings read alike, the source gives them in different places.

Legend:
M. gallisepticum S6 = assay: Anti-mycoplasmal activity, MIC in Friis broth agarose; type: cell-based; settings: Friis broth solidified with 0.9% agarose, 6 days incubation at 37°C
[1] = system: Neisseria catarrhalis 1502; assay: Human bacteria, MIC by serial dilution in nutrient agar; type: cell-based; settings: nutrient agar with 5% chocolated horse blood, 18 hours at 37°C
Ps. aeruginosa 10662 = assay: as above; type: cell-based; settings: nutrient agar with 5% chocolated horse blood, 18 hours at 37°C
Strep. pneumoniae CN33 = assay: as above; type: cell-based; settings: nutrient agar with 5% chocolated horse blood, 18 hours at 37°C
Strep. agalactiae SPA1 = assay: Veterinary bacteria, MIC by two fold serial dilution in agar
Protocol: (§1) The activity of the compounds of the Examples against various organisms important in veterinary infections was determined using two fold serial dilutions in Diagnostic Sensitivity Test Agar inoculated with 10^4 organisms.

Staph. aureus Oxford = assay: as above
Protocol: as §1

M. bovis NCTC 10131 = assay: microbe, parasite or virus in culture; type: cell-based
M. suipneumoniae JF 435 = assay: Anti-mycoplasmal activity, MIC in Friis broth agarose; type: cell-based; settings: Friis broth solidified with 0.9% agarose, 6 days incubation at 37°C
[2] = system: Staph. aureus 152 (pen. sens.); assay: Veterinary bacteria, MIC by two fold serial dilution in agar
Protocol: as §1

Bord. bronchiseptica BO9 = assay: as above
Protocol: as §1

Bord. bronchiseptica B08 = assay: as above
Protocol: as §1

M. pneumoniae ATCC 15492 = assay: Anti-mycoplasmal activity, MIC in Friis broth agarose; type: cell-based; settings: Friis broth solidified with 0.9% agarose, 6 days incubation at 37°C
Staph. aureus W2827 = assay: Human bacteria, MIC by serial dilution in nutrient agar; type: cell-based; settings: nutrient agar with 5% chocolated horse blood, 18 hours at 37°C
Past. haemolytica PA5 = assay: Veterinary bacteria, MIC by two fold serial dilution in agar
Protocol: as §1

[3] = system: Staph. aureus B4 (pen. resistant); assay: as above
Protocol: as §1

[4] = system: M. suipneumoniae PW/C/210; assay: Anti-mycoplasmal activity, MIC in Friis broth agarose; type: cell-based; settings: Friis broth solidified with 0.9% agarose, 6 days incubation at 37°C
M. dispar NCTC 10125 = assay: as above; type: cell-based; settings: Friis broth solidified with 0.9% agarose, 6 days incubation at 37°C
E. coli NCTC 10418 = assay: Human bacteria, MIC by serial dilution in nutrient agar; type: cell-based; settings: E. coli NCTC 10418 (human panel), nutrient agar with 5% chocolated horse blood, 18 hours at 37°C
E. coli ESS = assay: as above; type: cell-based; settings: nutrient agar with 5% chocolated horse blood, 18 hours at 37°C
[5] = system: Haemophilus influenzae Wy21; assay: as above; type: cell-based; settings: nutrient agar with 5% chocolated horse blood, 18 hours at 37°C
K. aerogenes A = assay: as above; type: cell-based; settings: nutrient agar with 5% chocolated horse blood, 18 hours at 37°C
Strep. agalactiae 2788-B = assay: as above; type: cell-based; settings: nutrient agar with 5% chocolated horse blood, 18 hours at 37°C
Strep. dysgalactiae SPD1 = assay: Veterinary bacteria, MIC by two fold serial dilution in agar
Protocol: as §1

E. coli E1 = assay: as above
Protocol: as §1

[6] = system: M. hyosynoviae ATCC 25591; assay: Anti-mycoplasmal activity, MIC in Friis broth agarose; type: cell-based; settings: Friis broth solidified with 0.9% agarose, 6 days incubation at 37°C
M. suipneumoniae Str. 11 = assay: as above; type: cell-based; settings: Friis broth solidified with 0.9% agarose, 6 days incubation at 37°C
[7] = system: Corynebacterium xerosis 9755; assay: Human bacteria, MIC by serial dilution in nutrient agar; type: cell-based; settings: nutrient agar with 5% chocolated horse blood, 18 hours at 37°C
Strep. spp. 64/848-C = assay: as above; type: cell-based; settings: nutrient agar with 5% chocolated horse blood, 18 hours at 37°C
Strep. faecalis I = assay: as above; type: cell-based; settings: nutrient agar with 5% chocolated horse blood, 18 hours at 37°C
[8] = system: Erysipelothrix rhusiopathiae NCTC 8163; assay: Veterinary bacteria, MIC by two fold serial dilution in agar
Protocol: as §1

M. suipneumoniae MS16 = assay: Anti-mycoplasmal activity, MIC in Friis broth agarose; type: cell-based; settings: Friis broth solidified with 0.9% agarose, 6 days incubation at 37°C
[9] = system: Strep. suis (group D) SPS11; assay: Veterinary bacteria, MIC by two fold serial dilution in agar
Protocol: as §1

Strep. uberis SPU1 = assay: as above
Protocol: as §1

M. suipneumoniae LABER = assay: Anti-mycoplasmal activity, MIC in Friis broth agarose; type: cell-based; settings: Friis broth solidified with 0.9% agarose, 6 days incubation at 37°C
S. dublin S7 = assay: Veterinary bacteria, MIC by two fold serial dilution in agar
Protocol: as §1

Past. multocida PA2 = assay: as above; settings: Pasteurella multocida, PA2, 18 h
Protocol: as §1

Sarcina lutea 8340 = assay: Human bacteria, MIC by serial dilution in nutrient agar; type: cell-based; settings: Micrococcus luteus, nutrient agar with 5% chocolated horse blood, 18 hours at 37°C, read-out: MIC
[10] = system: Haemophilus influenzae Q1; assay: as above; type: cell-based; settings: nutrient agar with 5% chocolated horse blood, 18 hours at 37°C, read-out: MIC
[11] = Mesomycoplasma hyopneumoniae, 144 h, read-out: MIC

“1-(p-Methylsulfinylphenyl)ethyl monate A [Example 8]” showed an MIC (M. gallisepticum S6) of 10 µg/mL, an MIC [1] of 4.0 µg/mL and an MIC (Ps. aeruginosa 10662) greater than 128 µg/mL. The MIC (Strep. pneumoniae CN33) was 8.0 µg/mL, the MIC (Strep. agalactiae SPA1; Strep. agalactiae SPA1, Diagnostic Sensitivity Test Agar, 18 hours at 37°C) was greater than 80 µg/mL and the MIC (Staph. aureus Oxford; Staph. aureus Oxford (veterinary panel), Diagnostic Sensitivity Test Agar, 18 hours at 37°C) was 20 µg/mL. The MIC (M. bovis NCTC 10131; M. bovis NCTC 10131, Friis broth solidified with 0.9% agarose, 6 days incubation at 37°C) was “.025 µg/mL”, the MIC (M. suipneumoniae JF 435) was 2.5 µg/mL and the MIC ([2]; Staph. aureus 152 (pen. sens.), Diagnostic Sensitivity Test Agar, 18 hours at 37°C) was 5.0 µg/mL. It also gave an MIC (Bord. bronchiseptica BO9; Bord. bronchiseptica BO9, Diagnostic Sensitivity Test Agar, 18 hours at 37°C) greater than 80 µg/mL, an MIC (Bord. bronchiseptica B08; Bord. bronchiseptica B08, Diagnostic Sensitivity Test Agar, 18 hours at 37°C) greater than 80 µg/mL and an MIC (M. pneumoniae ATCC 15492) of 10 µg/mL. It also gave an MIC (Staph. aureus W2827) of 32 µg/mL, an MIC (Past. haemolytica PA5; Past. haemolytica PA5, Diagnostic Sensitivity Test Agar, 18 hours at 37°C) of 80 µg/mL and an MIC ([3]; Staph. aureus B4 (pen. resistant), Diagnostic Sensitivity Test Agar, 18 hours at 37°C) of 20 µg/mL. The MIC [4] was 1.0 µg/mL, the MIC (M. dispar NCTC 10125) was 0.5 µg/mL and the MIC (E. coli NCTC 10418) was greater than 128 µg/mL. For the same compound, the MIC (E. coli ESS) was 4.0 µg/mL, the MIC [5] was 1.0 µg/mL and the MIC (K. aerogenes A) was greater than 128 µg/mL. The MIC (Strep. agalactiae 2788-B) was 8.0 µg/mL, the MIC (Strep. dysgalactiae SPD1; Strep. dysgalactiae SPD1, Diagnostic Sensitivity Test Agar, 18 hours at 37°C) was 2.5 µg/mL and the MIC (E. coli E1; E. coli E1, Diagnostic Sensitivity Test Agar, 18 hours at 37°C) was greater than 80 µg/mL. The MIC [6] was 0.5 µg/mL, the MIC (M. suipneumoniae Str. 11) was 1.0 µg/mL and the MIC [7] was greater than 128 µg/mL. The MIC (Strep. spp. 64/848-C) was 4.0 µg/mL, the MIC (Strep. faecalis I) was greater than 128 µg/mL and the MIC ([8]; Erysipelothrix rhusiopathiae NCTC 8163, Diagnostic Sensitivity Test Agar, 18 hours at 37°C) was greater than 80 µg/mL. For the same compound, the MIC (M. suipneumoniae MS16) was 1.0 µg/mL, the MIC ([9]; Strep. suis (group D) SPS11, Diagnostic Sensitivity Test Agar, 18 hours at 37°C) was 80 µg/mL and the MIC (Strep. uberis SPU1; Strep. uberis SPU1, Diagnostic Sensitivity Test Agar, 18 hours at 37°C) was “.625 µg/mL”. It also gave an MIC (M. suipneumoniae LABER) of 2.5 µg/mL and an MIC (S. dublin S7; S. dublin S7, Diagnostic Sensitivity Test Agar, 18 hours at 37°C) greater than 80 µg/mL.

For `CC(=CC(=O)OCc1cccc([S+](C)[O-])c1)CC1OCC(CC2OC2C(C)C(C)O)C(O)C1O` (stereo not drawn) [Example 6, m-Methylsulfinylbenzyl monate A], the MIC (M. gallisepticum S6; Mycoplasmoides gallisepticum, 144 h, read-out: MIC) was greater than 10 µg/mL, the MIC ([1]; read-out: MIC) was 12.5 µg/mL (≈ 25.2 µM) and the MIC (Ps. aeruginosa 10662; Pseudomonas aeruginosa, read-out: MIC) was greater than 100 µg/mL. For the same compound, the MIC (Past. multocida PA2) was 20 µg/mL (≈ 40.3 µM), the MIC (Strep. pneumoniae CN33; Streptococcus pneumoniae, read-out: MIC) was 25 µg/mL (≈ 50.3 µM) and the MIC (Strep. agalactiae SPA1; Streptococcus agalactiae, SPA1, 18 h) was 20 µg/mL (≈ 40.3 µM). For the same compound, the MIC (Sarcina lutea 8340) was greater than 100 µg/mL, the MIC (Staph. aureus Oxford; Staphylococcus aureus, 18 h) was 5 µg/mL (≈ 10.1 µM) and the MIC (M. bovis NCTC 10131; NCTC10131, 144 h) was 0.25 µg/mL (≈ 0.503 µM). It also gave an MIC (M. suipneumoniae JF 435; Mesomycoplasma hyopneumoniae, JF435, 144 h, read-out: MIC) of 10 µg/mL (≈ 20.1 µM), an MIC ([2]; Staphylococcus aureus, 18 h) of 5 µg/mL (≈ 10.1 µM) and an MIC (Bord. bronchiseptica BO9; Bordetella bronchiseptica, BO9, 18 h) greater than 80 µg/mL. It also gave an MIC (Bord. bronchiseptica B08; Bordetella bronchiseptica, B08, 18 h) greater than 80 µg/mL, an MIC [10] of 2.5 µg/mL (≈ 5.03 µM) and an MIC (M. pneumoniae ATCC 15492; Mycoplasmoides pneumoniae, ATCC15492, 144 h, read-out: MIC) of 5 µg/mL (≈ 10.1 µM). For the same compound, the MIC (Staph. aureus W2827; Staphylococcus aureus, read-out: MIC) was 12.5 µg/mL (≈ 25.2 µM), the MIC (Past. haemolytica PA5; Mannheimia haemolytica, PA5, 18 h) was 80 µg/mL (≈ 161 µM) and the MIC ([3]; Staphylococcus aureus, 18 h) was 5 µg/mL (≈ 10.1 µM). For the same compound, the MIC [4, 11] was 5 µg/mL (≈ 10.1 µM), the MIC (M. dispar NCTC 10125; 144 h, read-out: MIC) was 2.5 µg/mL (≈ 5.03 µM) and the MIC (E. coli NCTC 10418; Escherichia coli, NCTC10418, read-out: MIC) was greater than 100 µg/mL. The MIC (E. coli ESS; Escherichia coli, read-out: MIC) was 25 µg/mL (≈ 50.3 µM), the MIC ([5]; read-out: MIC) was 2.5 µg/mL (≈ 5.03 µM) and the MIC (K. aerogenes A; Klebsiella aerogenes, read-out: MIC) was greater than 100 µg/mL. For the same compound, the MIC (Strep. agalactiae 2788-B; Streptococcus agalactiae, read-out: MIC) was 25 µg/mL (≈ 50.3 µM), the MIC (Strep. dysgalactiae SPD1; Streptococcus dysgalactiae, SPD1, 18 h) was 20 µg/mL (≈ 40.3 µM) and the MIC (E. coli E1; Escherichia coli, E1, 18 h) was greater than 80 µg/mL. The MIC ([6]; 144 h, read-out: MIC) was 5 µg/mL (≈ 10.1 µM), the MIC (M. suipneumoniae Str. 11; [11]) was 5 µg/mL (≈ 10.1 µM) and the MIC ([7]; read-out: MIC) was greater than 100 µg/mL. It also gave an MIC (Strep. faecalis I; Enterococcus faecalis, read-out: MIC) greater than 100 µg/mL, an MIC ([8]; Erysipelothrix rhusiopathiae, NCTC8163, 18 h) greater than 80 µg/mL and an MIC (M. suipneumoniae MS16; [11]) of 5 µg/mL (≈ 10.1 µM). It also gave an MIC ([9]; Streptococcus suis, 18 h) greater than 80 µg/mL, an MIC (Strep. uberis SPU1; Streptococcus uberis, SPU1, 18 h) of 5 µg/mL (≈ 10.1 µM) and an MIC (M. suipneumoniae LABER; [11]) of 5 µg/mL (≈ 10.1 µM). It also gave an MIC (S. dublin S7; Salmonella enterica, S7, 18 h) greater than 80 µg/mL.
